In data set [1] the test system is breast cancer cell line HCC70. Kind of data set: Cell growth inhibitory activity, HCC70. The data set is classed as cell-based. As for the experimental part:
[The source words this procedure for another cell line and reports this cell line under the same test.] (§1) The cell growth inhibitory activity against a colorectal cancer cell line HCT116 was measured. As an index of cell growth inhibitory activity, a concentration at which cell growth was inhibited by 50% as compared with a control (IC50) was used. The method is as follows. HCT116 was added to a 6-well plate by 5×10^4, compounds having various concentrations were added after 24 hours, and the number of cells was counted after 72 hours of culture. As the control, DMSO was used in an amount equal to the amount added in accordance with the addition concentration of the highest-concentration compound. The number of cells at each concentration relative to the control was expressed as a percentage.
(§2) The method is as described above.

The test system of data set [2] is gastric cancer cell line KATO III. The data set can be described thus: Cell growth inhibitory activity, KATO III. Format: cell-based. As for the experimental part: as §1, §2
The cell growth inhibitory activity (IC50) of each of curcumin, GO-Y199, and GO-Y206 against the colorectal cancer cell lines DLD-1 and HCT116 and the gastric cancer cell lines KATO III and H-111-TC was measured. The method is as described above.

For data set [3], the system named is malignant pleural mesothelioma cell line MSTO211H. The data set can be described thus: Cell growth inhibitory activity, MSTO211H. The data set is classed as cell-based. Particulars: Table 8. The method, then: as §1, with “percentage. In Table 3, the turbidities of the compounds are also indicated.” for “percentage.”
GO-Y198, GO-Y199, and GO-Y200 against malignant pleural mesothelioma cell lines NCI-H226 and MSTO211H was measured. The method is as described above. For comparison, the IC50 of cisplatin (CDDP), a cytocidal anticancer agent, is also indicated.

Data set [4] is described as follows: Turbidity measurement. The data set is classed as physicochemical. As for the experimental part: The turbidity of various compounds was measured. The method is as follows. […] Curcumin was cloudy while GO-Y199 was clear. The solubility was measured with a turbidimeter (WZB-170 Portable Turbidimeter available from REX). The turbidity of the compound was corrected for concentration.
Subsequently, GO-Y206 and curcumin were adjusted to final concentrations of 1.25 μM and 5.00 μM, respectively, and their turbidities were measured.

The test system of data set [5] is fatty acid synthetase. The data set can be described thus: Influence on fatty acid synthetase, ELISA. Format: cell-based, Human. To be noted: 4 μM vs control group. The method, then:
(§3) The influence of GO-Y199 on NF-kB (p65) was investigated. The method is as follows. 3×10^6 cells of the HCT116 cell line were added to a 10-cm plate, 2 μM of GO-Y199 was added after 24 hours, the cells were collected after 24 hours, embedded in iPGell (GenOStaff), and fixed in formalin, paraffin blocks were then prepared, and immuno-histochemistry was performed with an anti-NF-kB (p65) antibody. In addition, 2 μM and 5 μM of GO-Y199 were added, lysates were collected after 24 hours, and an expression level of NF-kB (p65) was analyzed using an ELISA-plate (NF-kBp65 (pS536) SimpleStep-ELISA-kit, Abcam). An amount of protein was corrected by the absorbance of A 280 nm. The upper part of FIG. 14 indicates photographs of the control group and the GO-Y199 (2 μM)-added group after 24 hours. The lower part of FIG. 14 indicates results of the t-test of these groups after 24 hours. FIG. 15 indicates the comparison results of the NF-kB inhibitory effect of GO-Y199 (2 μM, 5 μM)-added groups with respect to the control group.
The influence of GO-Y199 on fatty acid synthetase was investigated. The method is as described above. Protein quantification was performed using a Human Fatty acid synthase ELISA Kit (MyBioSource). FIG. 19 indicates the comparison result of the fatty acid synthetase inhibitory effect of the GO-Y199 (4 μM)-added group with respect to the control group.

For data set [6], the system named is pancreatic cancer cell line Panc-1. Kind of data set: Cell growth inhibitory activity, Panc-1. The data set is classed as cell-based. To be noted: Table 7. As for the experimental part:
[The source words this procedure for another cell line and reports this cell line under the same test.] as §1, §2

Data set [7] deals with pSTAT3. Kind of data set: Influence on pSTAT3, immunohistochemistry. To be noted: 2 μM; 24 hours; control 10.2±1.6%. Format: cell-based. The method, then:
as §3
The influence of GO-Y199 on pSTAT3 was investigated. The method is as described above. Immunohistochemistry was performed with an anti-pSTAT3 antibody. The upper part of FIG. 16 indicates photographs of the control group and the GO-Y199 (2 μM)-added group after 24 hours. The lower part of FIG. 16 indicates results of the t-test of these groups after 24 hours.

Data set [8] deals with NF-kB (p65). Kind of data set: Influence on NF-kB, immunohistochemistry in HCT116. Particulars: 2 μM, 24 hours, control 96.8±1.1%. The data set is classed as cell-based. The method, then:
as §3

Read-outs that look alike come from different tables or passages of the source.

For `COCOc1cc(/C=C/C(=O)CC(SCCOCCOCCOCCOCc2cn([C@@H]3O[C@H](CO)[C@@H](O[C@@H]4O[C@H](CO)[C@H](O)[C@H](O)[C@H]4O)[C@H](O)[C@H]3O)nn2)c2cc(OCOC)cc(OCOC)c2)cc(OCOC)c1` (some centres unmarked) [GO-Y199], the half-maximal inhibitory concentration (IC50) in data set [1] (Table 4, 72 hours) was found to be 540 nM; in data set [2] (Table 4, 72 hours, read-out: IC50 KATO III), 0.8 µM; in data set [2] (Table 6, read-out: IC50 (μM) KATO III) it was 3.86 µM; in data set [3], 2.4 µM; in data set [6] it was 0.95 µM. The “GO-Y199 vs GO-Y030 (IC50 comparison), HCC70” value in data set [1] (Table 5, ratio of IC50) came to 0.24. The compound further had a Turbidity/μm in data set [4] (Table 1, average turbidity corrected for final concentration (1.7-170 μm, per compound)) of 0.00041 NTU/μM. The “Relative Value (turbidity)” value in data set [4] (Table 1, turbidity/μm relative to curcumin = 1) came to 0.0014. The “Turbidity (Relative Value)” value in data set [4] (Table 3, relative to curcumin = 1) was 0.0014. The “Ave Turbidity (NTU)” value in data set [4] (final conc. 170 μm in DDW) worked out at 0.07 ± 0.05 NTU. The appearance of solution entry in data set [4] (final concentration 50 μM in distilled water or DMEM with 10% fetal bovine serum, from DMSO) is “clear”. The “fatty acid synthetase inhibitory effect” value in data set [5] was “significant fatty acid synthetase inhibitory effect”. In data set [7], the “relative expression level of pSTAT3” value stood at 0.3±0.5%. For the same compound, the “proportion of cells expressing NF-kB (p65)” value in data set [8] is listed as 69.4±12.4%.

Source of the values: US20240158430A1, “NOVEL COMPOUND OR SALT THEREOF, AND ANTITUMOR ACTIVATOR CONTAINING SAME AS ACTIVE INGREDIENT” (AKITA UNIVERSITY, priority 2021, published 2024).
